One data set deals with influenza. The note with it: cited from earlier work.
The test system of the next data set is HIV. The note with it: cited from earlier work.
The test system of another data set is HIV strain RF. Nature of the data set: Ability to prevent virus-induced cell death using MT4 cells and strain RF (Example III). Format: cell-based. The note with it: MT4 cells, 7 days, MTT, 10080 min. As to the method:
(§1) Various oligomers were dissolved in RPMI and were then assayed for anti-HIV activity by making doubling dilutions of the solutions across a 96 well microtitre plate. To each well were then added 5×10^4 cells and 100 TCID50 of virus and the plates incubated at 37° C. for 7 days. MTT was added to each well and the plates incubated for a further 2 hours. The blue formazan crystals were dissolved using acidic isopropanol, and the absorbance measured at 540 nm.

The subject of another data set is HIV-I (RF). Nature of the data set: Effect of treating HIV-I (RF)-infected cells (C8166) 24 hours post-infection (Example V, Table VII). The note with it: for P24 % CONTROL: 8640 min.
The subject of data set [1] is HIV-I (GB8). Briefly: Effect of treating HIV-I (GB8)-infected cells (JM) 24 hours post-infection (Example V, Table VI). The data set is classed as cell-based. The note with it: for P24 % CONTROL: 8640 min.
The test system of another data set is HIV-I, GB8. Nature of the data set: Ability to prevent syncytia formation and expression of P24 viral core antigen using JM cells and GB8 virus strain (Example I). The note with it: for P24 % CONTROL: 4320 min; for SYNCYTIA: after 3 days. The data set is classed as cell-based. How it is done:
The virus was first incubated with an oligomer for 15 minutes and then the cells were added. After 2 hours adsorption, the virus innoculum was removed and the cells were washed three times to remove traces of input virus. Antiviral activity was determined after 3 days incubation by plotting the mean number of syncytia found in quadruple cultures against log10 concentration of anionic polymer or of other test compounds. The potency of an oligomer was also measured by assaying viral core antigen (P24 test-Abbott) in the supernatant fluid. Heparin, dextran sulfate, rs CD4, ATZ and/or ddC data, when included in any of the following Tables, are provided as positive controls.

For a further data set, the system named is GB8 virus in JM cells. Briefly: Virus infection of JM cells with GB8 in the presence of test compounds: syncytia and P24 (Example II). The note with it: Table II; for SYNCYTIA % / P24 %: % of control; for SYNCYTIA %: 2880 min; for P24 %: 5760 min.
The test system of a further data set is MT4 cells. Briefly: Toxicity to MT4 cells (TD50, Table IV, MTT). The data set is classed as cell-based. The note with it: MT4 cells, 7 days, MTT. As to the method: as §1
The subject of data set [2] is HIV-I (GB8). Nature of the data set: Pretreatment of JM cells and block of HIV-I (GB8) infection (Example IV). The note with it: pretreated overnight at 20 μg/mL.
Data set [3] deals with HIV-I (GB8). Briefly: Effect of treating HIV-I (GB8)-infected cells (JM) 48 hours post-infection (Example V, Table VIII). The data set is classed as cell-based. The note with it: for P24 / P24 % CONTROL: day 6 p.i.
The mark [4] stands for this setting: 0.62 μM, addition 24 hours p.i.
The mark [5] stands for this setting: 1.25 μM, addition 24 hours p.i.
Setting [6] is: 0.31 μM, addition 24 hours p.i.
Where [7] appears, read: 1.2 μM, addition 0 hours p.i., single wells.

Several values for one entry are separate records, joined by “and”; a condition that tells them apart may be missing. Identical values can stand only once.

Method for GB8 virus in JM cells: Virus infection of JM cells was carried out in the presence of different concentrations of test compounds. JM cells (1×10^5) and 50-100 syncytial forming units of virus (GB8) were added to duplicate wells of a tissue culture plate containing 1 mL volumes of growth medium with or without drug. The plate was incubated for 2 days at 37° C. and then scored for the presence of syncytia. At the same time the cells were washed and the growth medium replaced. After a further two days incubation, the cell free supernatant fluids were harvested and assayed for levels of P24 viral core antigen using the Coulter™ HIV Antigen assay.
Method for HIV-I (RF): Cells were infected with strain RF or GB8 for 24 hours at 37° C. at a multiplicity of infection of 0.001. Cells were washed three times to remove residual virus and then replated into fresh growth medium. Cells were then treated for 24 and 48 hours post-infection (p.i.) with the indicated concentrations of test compounds. Syncytia and P24 antigen levels were determined on the indicated days p.i. by methods described before.

Take 2-deoxy-2-fluoroglucose: the viral protein glycosylation entry with influenza was “inhibited viral protein glycosylation”.
As for `O=CC[C@@H](O)[C@H](O)[C@H](O)CO` [2-deoxy-D-glucose], the viral protein glycosylation entry in the data set with influenza is “inhibited viral protein glycosylation”. In the data set with HIV, the “expression of HIV glycoproteins and formation of syncytia” value was “inhibit expression of HIV glycoproteins and block the formation of syncytia”.
`CCC(O)[C@H](N)C(=O)O` (stereo partly drawn) [β-hydroxy-norvaline]: the “expression of HIV glycoproteins and formation of syncytia” value in the data set on HIV is “inhibit expression of HIV glycoproteins and block the formation of syncytia”.
In the data set on HIV strain RF, “poly{imino[2,2'-disulfo(1,1'-biphenyl)-4,4'-diyl]iminocarbonyl}, alpha-{[(4-methylphenyl)amino]carbonyl}-omega[(4-methylphenyl)amino]- [Example 1A]” registered an ED50 of 1.6 µg/mL. Besides, the “P24 DAY 6 p.i.” value in the data set with HIV-I (RF) (setting [4]) was determined as 700000 pg/mL; in the data set on HIV-I (RF) (setting [5]), 1.5e+06 pg/mL; in the data set with HIV-I (RF) (5 μM, addition 24 hours p.i.), 9300 pg/mL; in the data set with HIV-I (RF) (10 μM, addition 0 hours p.i.) it was 16000 pg/mL; with HIV-I (RF) (10 μM, addition 24 hours p.i.), 9200 pg/mL; in the data set on HIV-I (GB8) [1] (setting [6]), 165000 pg/mL. Further, the “P24 DAY 6 p.i.” value in the data set with HIV-I (GB8) [1] (setting [4]) came to 56000 pg/mL; in the data set with HIV-I (GB8) [1] (1.2 μM, addition 24 hours p.i.) it was 15000 pg/mL; in the data set with HIV-I (GB8) [1] (2.5 μM, addition 0 hours p.i.), 420 pg/mL; in the data set with HIV-I (GB8) [1] (2.5 μM, addition 24 hours p.i.), 12100 pg/mL. In addition, the “P24 % CONTROL” value in the data set with HIV-I (RF) (setting [4]) was found to be 74%; in the data set with HIV-I (RF) (setting [5]), 100%; in the data set on HIV-I (RF) (2.5 μM, addition 24 hours p.i.) it was 10.2%; in the data set with HIV-I (RF) (5 μM, addition 24 hours p.i.), 1.0%; in the data set with HIV-I (RF) (10 μM, addition 0 hours p.i.) it was 1.7%; with HIV-I (RF) (10 μM, addition 24 hours p.i.), 1.0%. The “P24 % CONTROL” value in the data set with HIV-I (GB8) [1] (setting [6]) stood at 16.0%; with HIV-I (GB8) [1] (setting [4]), 5.4%; in the data set on HIV-I (GB8) [1] (1.2 μM, addition 24 hours p.i.) it was 1.5%; in the data set with HIV-I (GB8) [1] (2.5 μM, addition 0 hours p.i.) it was 0.04%; with HIV-I (GB8) [1] (2.5 μM, addition 24 hours p.i.) it was 1.2%; in the data set on HIV-I, GB8 (0.6 μg/mL) it was 0.13%. In addition, the “P24 % CONTROL” value in the data set on HIV-I, GB8 (1.25 μg/mL) was under 0.1%; in the data set with HIV-I, GB8 (2.5 μg/mL), under 0.1%; in the data set with HIV-I (GB8) [3] (1.2 μM, addition 0 hours p.i.), 0.41%; with HIV-I (GB8) [3] (1.2 μM, addition 48 hours p.i.), 19.0%. The “SYNCYTIA/WELL DAY 2” value turned out to be 0 with HIV-I (RF) (setting [5]); 0 in the data set on HIV-I (RF) (2.5 μM, addition 24 hours p.i.); 0 with HIV-I (RF) (5 μM, addition 24 hours p.i.); 0 with HIV-I (RF) (10 μM, addition 0 hours p.i.); 0 with HIV-I (RF) (10 μM, addition 24 hours p.i.). Also, the “SYNCYTIA/WELL DAY 3” value was found to be 0 with HIV-I (RF) (2.5 μM, addition 24 hours p.i.); 0 with HIV-I (RF) (5 μM, addition 24 hours p.i.); 0 with HIV-I (RF) (10 μM, addition 0 hours p.i.); 0 in the data set with HIV-I (RF) (10 μM, addition 24 hours p.i.). Besides, the “SYNCYTIA/WELL DAY 3 p.i.” value in the data set on HIV-I (GB8) [1] (setting [6]) is given as over 50 SYNCYTIA/WELL; with HIV-I (GB8) [1] (setting [4]) it was under 20 SYNCYTIA/WELL; in the data set on HIV-I (GB8) [1] (1.2 μM, addition 24 hours p.i.) it was under 10 SYNCYTIA/WELL; in the data set on HIV-I (GB8) [1] (2.5 μM, addition 0 hours p.i.), 0 SYNCYTIA/WELL; in the data set on HIV-I (GB8) [1] (2.5 μM, addition 24 hours p.i.), 0 SYNCYTIA/WELL; with HIV-I (GB8) [3] (setting [7]), 0 SYNCYTIA/WELL. In addition, in the data set on HIV-I (GB8) [3] (1.2 μM, addition 48 hours p.i., single wells), the “SYNCYTIA/WELL DAY 3 p.i.” value is 19 SYNCYTIA/WELL and 10 SYNCYTIA/WELL and 12 SYNCYTIA/WELL. In addition, the P24 is 37355 pg/mL in the data set with HIV-I, GB8 (0.6 μg/mL); 541 pg/mL in the data set on HIV-I, GB8 (1.25 μg/mL); 96 pg/mL with HIV-I, GB8 (2.5 μg/mL); 4.3 × 10^5 units/mL in the data set with GB8 virus in JM cells (0.03 μg/mL); 4.0 × 10^5 units/mL in the data set on GB8 virus in JM cells (0.1 μg/mL); 4.0 × 10^4 units/mL in the data set with GB8 virus in JM cells (0.3 μg/mL). The P24 in the data set on GB8 virus in JM cells (1 μg/mL) is 9.1 × 10^3 units/mL; in the data set on HIV-I (GB8) [2] it was 2623 pg/mL; in the data set with HIV-I (GB8) [3] (1.2 μM, addition 0 hours p.i.), 450 pg/mL; in the data set on HIV-I (GB8) [3] (1.2 μM, addition 48 hours p.i.), 21000 pg/mL. Also, the SYNCYTIA in the data set on HIV-I, GB8 (1.25 μg/mL) is listed as 0; with HIV-I, GB8 (2.5 μg/mL), 0; in the data set on HIV-I, GB8 (5.0 μg/mL) it was 0. In addition, the “SYNCYTIA (2 DAYS) MEAN” value is 60 with GB8 virus in JM cells (0.01 μg/mL); 52 in the data set with GB8 virus in JM cells (0.03 μg/mL); 25 in the data set with GB8 virus in JM cells (0.1 μg/mL); 14 with GB8 virus in JM cells (0.3 μg/mL); 0 in the data set on GB8 virus in JM cells (1 μg/mL); 0 with GB8 virus in JM cells (3 μg/mL). Besides, in the data set on GB8 virus in JM cells (10 μg/mL), the “SYNCYTIA (2 DAYS) MEAN” value was determined as 0. Besides, the SYNCYTIA % was 143% with GB8 virus in JM cells (0.01 μg/mL); 123% in the data set on GB8 virus in JM cells (0.03 μg/mL); 58% in the data set with GB8 virus in JM cells (0.1 μg/mL); 33% with GB8 virus in JM cells (0.3 μg/mL); 0% in the data set with GB8 virus in JM cells (1 μg/mL); 0% in the data set on GB8 virus in JM cells (3 μg/mL). Moreover, the SYNCYTIA % with GB8 virus in JM cells (10 μg/mL) was found to be 0%; in the data set with HIV-I (GB8) [2] (% of control, 2880 min), 12%. In addition, the P24 % in the data set on GB8 virus in JM cells (0.03 μg/mL) worked out at 100%; in the data set with GB8 virus in JM cells (0.1 μg/mL) it was 100%; in the data set with GB8 virus in JM cells (0.3 μg/mL), 11%; in the data set on GB8 virus in JM cells (1 μg/mL), 3%; in the data set on HIV-I (GB8) [2] (% of control, 2880 min), 9%. Also, in the data set on MT4 cells, the TD50 was over 100 µg/mL. Moreover, in the data set on HIV-I (GB8) [2] (2 days), the “MEAN SYNCYTIA” value amounted to 14. In the data set with HIV-I (GB8) [3] (setting [7]), the “SYNCYTIA/WELL DAY 6 p.i.” value is 0 SYNCYTIA/WELL. Moreover, in the data set with HIV-I (GB8) [3] (summary of studies), the “effect on cells having preestablished infections” value is “cleared cultures of syncytia, stabilized the infection and reduced virus antigen levels”.

These data come from patent US5707615A, “Method of treating HIV infections with anti-viral formulations” (Merrell Pharmaceuticals Inc., priority 1997, dated 1998).
